Where two headings read alike, the source gives them in different places.
Tests used:
α-galactosidase A = system: α-galactosidase A; design: method as in PMID 17894781, PMID 18381081, PMID 19387866, PMID 19287194; details: cultured Fabry patient cell lines, incubation for five days, 49 missense mutant forms; cited from earlier work
[1] = system: tissue globotriaosylceramide levels; design: method as in PMID 19773742; details: mouse model; cited from earlier work
E. coli β-galactosidase = target: T1, E. coli β-galactosidase (Escherichia coli, UniProt P00722); test: Inhibition of E. coli β-galactosidase, Ki by kinetic studies; assay type: biochemical
T1 construct: purchased Sigma Chemicals
T1 sequence (P00722 2-1024 limits assumed): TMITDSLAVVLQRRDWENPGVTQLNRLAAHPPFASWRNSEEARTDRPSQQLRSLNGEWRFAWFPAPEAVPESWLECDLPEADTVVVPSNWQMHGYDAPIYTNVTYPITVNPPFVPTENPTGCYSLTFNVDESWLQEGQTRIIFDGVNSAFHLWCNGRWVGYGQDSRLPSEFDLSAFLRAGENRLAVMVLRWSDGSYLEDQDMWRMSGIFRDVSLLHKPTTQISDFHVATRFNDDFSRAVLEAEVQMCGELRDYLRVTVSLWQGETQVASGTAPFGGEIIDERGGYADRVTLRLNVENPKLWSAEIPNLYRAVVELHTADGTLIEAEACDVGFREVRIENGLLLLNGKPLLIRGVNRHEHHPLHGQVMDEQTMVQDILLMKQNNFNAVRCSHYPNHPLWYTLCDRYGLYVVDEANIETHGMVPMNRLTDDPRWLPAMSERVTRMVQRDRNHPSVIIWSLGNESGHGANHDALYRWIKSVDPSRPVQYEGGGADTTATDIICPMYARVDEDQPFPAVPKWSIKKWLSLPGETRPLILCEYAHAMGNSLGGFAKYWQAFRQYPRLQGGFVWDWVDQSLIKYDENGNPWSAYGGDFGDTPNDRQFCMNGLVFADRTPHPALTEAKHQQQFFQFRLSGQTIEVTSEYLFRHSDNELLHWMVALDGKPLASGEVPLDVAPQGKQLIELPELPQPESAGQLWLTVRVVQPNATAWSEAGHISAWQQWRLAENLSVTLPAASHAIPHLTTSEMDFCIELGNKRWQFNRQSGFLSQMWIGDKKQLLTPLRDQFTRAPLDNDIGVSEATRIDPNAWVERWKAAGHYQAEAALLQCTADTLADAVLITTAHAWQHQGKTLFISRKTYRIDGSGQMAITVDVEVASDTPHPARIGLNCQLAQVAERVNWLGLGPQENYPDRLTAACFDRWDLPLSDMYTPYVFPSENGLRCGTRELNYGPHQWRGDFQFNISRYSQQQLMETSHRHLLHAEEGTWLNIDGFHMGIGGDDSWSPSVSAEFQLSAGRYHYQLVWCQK
Procedure: E. coli β-galactosidase was purchased from Sigma Chemicals. Kinetic studies were performed at 37°C in 100 mM sodium phosphate buffer, pH 7.0 containing 0.1% serum albumin. Rates of reaction were determined as a function of both varying substrate and inhibitor concentration over the concentration ranges indicated below.
Data obtained were analysed using a nonlinear regression analysis program GraFit, p-nitrogalactopyranoside (Km = 0.03 mM), 0.045 – 0.3 mM). […]

[2] = target: T2, green coffee bean α-galactosidase (Coffea arabica, UniProt Q42656); test: Inhibition of green coffee bean α-galactosidase, Ki by kinetic studies; assay type: biochemical; details: 37 °C, pH 6.5, substrate PNP-Gal; read-out: Ki α-gal GCB
T2 construct: made in house
T2 sequence (Q42656 16-378): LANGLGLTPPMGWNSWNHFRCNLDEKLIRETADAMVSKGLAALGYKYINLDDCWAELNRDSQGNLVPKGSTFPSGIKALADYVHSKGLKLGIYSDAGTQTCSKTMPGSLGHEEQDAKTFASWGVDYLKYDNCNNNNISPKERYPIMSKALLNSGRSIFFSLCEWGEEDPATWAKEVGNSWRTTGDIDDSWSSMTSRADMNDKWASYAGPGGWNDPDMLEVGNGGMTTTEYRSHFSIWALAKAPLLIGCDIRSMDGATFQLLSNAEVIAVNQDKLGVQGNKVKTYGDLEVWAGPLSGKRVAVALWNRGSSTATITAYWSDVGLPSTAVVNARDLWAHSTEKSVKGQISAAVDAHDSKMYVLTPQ
Procedure: Green coffee bean α-galactosidase was purified and assayed as described.
Kinetic studies were performed at 37°C in 50 mM sodium phosphate buffer, pH 6.5 containing 0.1% serum albumin. Reactions were initiated by the addition of enzyme (final concentration = 0.3 µg/mL), bringing the total volume to 200µL. Reaction rates were measured by monitoring the release of p-nitrophenolate (λ = 400 nm, ε = […]) from PNP-Gal by means of a UNICAM 8700 UV-Vis spectrophotometer equipped with a circulating water bath. Inhibition studies were performed by varying […]
concentrations of both PNP-Gal and inhibitor. Ki values were calculated by direct fit of the initial rates to the equation below using Grafit. […]

[3] = target: T3, Agrobacterium sp. β-glucosidase/galactosidase (Agrobacterium sp., UniProt P12614); test: Inhibition of Agrobacterium sp. β-glucosidase/galactosidase (Abg), Ki by kinetic studies; assay type: biochemical
T3 construct: made in house
T3 sequence (P12614 1-459): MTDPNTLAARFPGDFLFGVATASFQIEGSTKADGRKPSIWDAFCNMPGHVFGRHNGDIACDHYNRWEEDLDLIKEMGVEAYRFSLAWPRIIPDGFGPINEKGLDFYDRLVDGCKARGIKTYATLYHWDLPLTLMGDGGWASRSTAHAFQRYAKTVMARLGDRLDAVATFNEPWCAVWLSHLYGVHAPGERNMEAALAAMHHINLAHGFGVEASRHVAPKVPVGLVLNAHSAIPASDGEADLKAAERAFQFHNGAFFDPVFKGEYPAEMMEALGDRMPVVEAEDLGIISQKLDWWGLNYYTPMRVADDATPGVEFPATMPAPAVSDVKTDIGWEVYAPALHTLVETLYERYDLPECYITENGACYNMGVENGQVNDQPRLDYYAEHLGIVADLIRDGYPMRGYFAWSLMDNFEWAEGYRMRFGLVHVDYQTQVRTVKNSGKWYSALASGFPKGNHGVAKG
Procedure: glycosidase was purified and assayed as described. Kinetic studies were performed at 37 °C in pH 7.0 sodium phosphate buffer (50 mM) containing 0.1 % bovine serum albumin, using 7.2 x 10-5 mg/mL enzyme. Approximate values of Ki were determined using a fixed concentration of substrate, 4-nitrophenyl β-D- […]
times to 5 times the Ki value ultimately determined. A horizontal line drawn through […]
an inhibitor concentration equal to -Ki. Full Ki determinations where required, were performed using the same range of inhibitor concentrations while also varying substrate (4-nitrophenyl glucoside) concentrations from approximately 0.015 mM to 0.6 mM. Data were analysed by direct fit to the Michaelis Menten equation describing reaction in the presence of inhibitors using the program GraFit. […]

[4] = system: β-galactosidase mutant feline fibroblast cell line; test: Chemical chaperone activity in β-galactosidase mutant feline fibroblast cell line; assay type: cell-based; details: preliminary; for increase of enzyme activity of β-galactosidase mutant: concentration 100 µM
[5] = target: T4, human lysosomal β-galactosidase (Homo sapiens, UniProt P16278); test: Inhibition of human lysosomal β-galactosidase; assay type: biochemical
T4 sequence (P16278 29-677): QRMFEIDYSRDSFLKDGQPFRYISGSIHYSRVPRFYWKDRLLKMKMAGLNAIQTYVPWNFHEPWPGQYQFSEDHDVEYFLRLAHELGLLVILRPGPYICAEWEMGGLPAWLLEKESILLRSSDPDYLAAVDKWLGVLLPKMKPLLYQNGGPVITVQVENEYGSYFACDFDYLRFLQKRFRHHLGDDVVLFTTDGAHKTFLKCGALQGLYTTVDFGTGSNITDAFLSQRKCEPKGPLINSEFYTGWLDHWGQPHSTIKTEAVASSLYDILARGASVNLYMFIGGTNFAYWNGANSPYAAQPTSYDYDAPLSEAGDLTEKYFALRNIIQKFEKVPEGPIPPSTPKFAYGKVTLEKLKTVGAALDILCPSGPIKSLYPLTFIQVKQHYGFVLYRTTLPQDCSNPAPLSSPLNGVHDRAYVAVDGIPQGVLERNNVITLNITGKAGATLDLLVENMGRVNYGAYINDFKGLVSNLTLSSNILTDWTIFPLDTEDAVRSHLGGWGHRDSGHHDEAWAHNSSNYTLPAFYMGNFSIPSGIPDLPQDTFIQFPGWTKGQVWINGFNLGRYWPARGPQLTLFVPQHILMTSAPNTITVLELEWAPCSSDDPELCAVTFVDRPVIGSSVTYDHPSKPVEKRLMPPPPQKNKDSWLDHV

β-galactosidase = system: β-galactosidase; design: method as in PMID 19812739; details: GM1-gangliosidosis model mice, orally administered; cited from earlier work
[6] = 37 °C, pH 7.0, read-out: Ki β-gal E. coli

Compound	Ki [2] [nM]	Ki [3] [nM]	Ki (E. coli β-galactosidase; [6]) [nM]	further results
OC[C@H]1NC[C@H](O)[C@@H](O)[C@H]1O [Compound 4, 1-Deoxygalactonojirimycin]				increase of α-galactosidase A levels (α-galactosidase A): 1.5 to 28 fold; tissue globotriaosylceramide levels [1]: reduce tissue globotriaosylceramide levels
CC(C)c1ccc(C(=O)NCCCCCCN2C[C@H](O)[C@@H](O)[C@@H](O)[C@H]2CO)cc1 [Compound 16]	2600	13000		Ki (E. coli β-galactosidase): 1300 nM
O=C(NCCCCCCN1C[C@H](O)[C@@H](O)[C@@H](O)[C@H]1CO)c1cccnc1 [Compound 17]	2200	1500	830	increase of enzyme activity of β-galactosidase mutant [4]: up to 5.5 fold
CN(C)c1ccc(C(=O)NCCCCCCN2C[C@H](O)[C@@H](O)[C@@H](O)[C@H]2CO)cc1 [Compound 18]	490	3800	1100	increase of relative enzyme activity of β-galactosidase mutant ([4]; concentration 2 µM): 4.8 fold
O=C(CCCc1ccc2ccc3cccc4ccc1c2c34)NCCCCCCN1C[C@H](O)[C@@H](O)[C@@H](O)C1CO (stereo partly shown) [Compound 19]	7000	60		Ki (E. coli β-galactosidase): 250 nM
CC(C)(C)OC(=O)NCCCCCCN1C[C@H](O)[C@@H](O)[C@@H](O)[C@H]1CO [Compound 20]	4300		2400	Ki ([3]; read-out: Ki β-glu/gal Abg, 37 °C, pH 7.0, substrate 4-nitrophenyl β-D-glucopyranoside): 3000 nM; IC50 [5]: 10900 nM; Ki [5]: 2000 nM
O=C(NCCCCCCN1C[C@H](O)[C@@H](O)[C@@H](O)[C@H]1CO)OCc1ccccc1 [Compound 22]	2200	6000	400	increase of enzyme activity of β-galactosidase mutant [4]: up to 5.5 fold; IC50 [5]: 3260 nM; Ki [5]: 720 nM
CCCCCCCCN[C@@H]1C=C(CO)[C@H](O)[C@H](O)[C@H]1O [N-octyl-4-epi-β-valienamine]				β-galactosidase activity in brain after oral administration (β-galactosidase): enhancing β-galactosidase activity
